What was measured:
[1] = Weight and food consumption in Sabra mice; assay type: in vivo
Procedure: 140 Female Sabra Mice 12 weeks old are divided to […] 10 mice in each group with equal weight. Mice are administered I.P. with either saline or 1 mg/kg Fluoxetine (PROZAC), compound 1, 4, 5, 7, 10, 11, 12, 13, 14, 15, 19, 26 for a 4 weeks period. On day 30 and on, mice were tested by the following behavioral tests. […]

serotonin (5HT) levels = assay: Serotonin (5HT) determination in brain tissue by HPLC with electrochemical detection; assay type: in vivo, mice; details: for 5HT: ng/g wet tissue +/− SEM; for 5HT levels in the hippocampus vs. control / 5HT levels in the hypothalamus vs. control: result in words
Procedure: Solution of DHBA as internal standard in the concentration of: 1 μg/ml in 0.1M perchloric acid, were prepared. Standard solutions of NE and 5HT in the concentration of 1-0.1 μg/ml in 0.1M perchloric acid were prepared.
Tissues (hypothalamus and hippocampus) obtained from 6-8 mice were dissected on ice surface and kept at −80 C. Hypothalamus (HT) or hippocampus (HC) from 1 mice were weighted (weight of HT −10-20 mg, HC 30-40 mg) and placed in eppendorf micro-centrifuge tube, 1.5 ml. To each tube was added 120-160 μl of ice cold solution of Perchloric acid and DHBA, homogenized in ice bath on Sonics vibra cell, 3×20 sec., 0.4 watts and centrifuged at 14,000×g at 4° C. 10 min. Supernatant gained was stored in ice before analysis.
The HPLC system consisted of Jasco PU-980 pump, Jasco AS-950-10 autosampler cooled at 4° C., H3 ODS-125A 3 μm 125 mm×4.6 mm i.d. analytical column (Hichrom, UK) were used. Electrochemical detector Coulochem ESA 5100A with analytical cell model 5011 was used for control detector voltage and record the current. Working electrode was set at potential +350 mV. Control and data collection/processing were handled through Borwin chromatography software.
The mobile phase composition: A stock buffer was prepared as follows: 20 mM sodium dihydrogenorthophosphate, EDTA 3 mg/l, 1-heptanesulfonic acid 1 g/l were dissolved in 1 liter deionized distilled water and buffered to pH 3.7 using concentrated phosphoric acid. To prepare the mobile phase buffer was mixed with acetonitrile (Baker HPLC analyzed) in the ratio 85:15 (v/v), filtered through a 0.2 μm membrane filter and degassed under vacuum after mixing. Mobile phase flow rate 1 ml/min. Injection volume 20 μl, retention time for DHBA 4.2 min., norepinephrine—3.1 min., 5HT 8.6 min. For calibration curve 1 ug/ml solution of DHBA together with 1.0-0.1 μg/ml solutions of 5HT and NE were used. The ratio between 5HT or NE and DHBA used to calculate the level of 5HT and NE in the sample. Date are given in ng/g wet tissue +/−SEM.

[2] = Open Field Test, compound X dose study; assay type: in vivo, BALB/c mice; details: 10 mg/kg i.p.; day 25; better than the other concentrations
Procedure: 50, 2 month old BALB/c mice, 10 mice per group, on ad libitum diet were divided to 5 experimental groups with equal weight. On the 2, 3, 4, 5, 9, 11, 16, 18, 23, 25, 29, 31 days mice were administered with either vehicle or compound x 0.1, 1, 10 mg/kg i.p. or imipramine 10 mg/kg Open Field Test was evaluated on day 25. The more time they spent on the […] the less depressed.

NPY protein = NPY protein expression by western blot; assay type: in vivo, BALB/c mice; details: FIG. 13
Procedure: (§1) 50, 2 month old female BALB/c mice, 10 mice per group, on ad libitum diet were separated (each mouse in a different cage) for 9 days (Separation Stress, a model for depression). On the 7, 8, 9, 34-40 days mice were administered with either vehicle or compounds X, 12 and 15 (1 mg/kg i.p.) or imipramine 10 mg/kg (antidepressant).

[3] = Weight and food consumption in OB/OB mice which lack the leptin gene; assay type: in vivo
From the text: Thus the compounds of the invention can be used to treat conditions that are mediated by the enhancement of leptin levels. In obesity there is high leptin level however the leptin receptors are not responding. High CNS leptin level has anti-depression effect however, if there is tolerance there is no anti depression effect.

P-AMPK protein = P-AMPK protein levels by western blot; assay type: in vivo, BALB/c mice
Procedure: as §1, with “x,” for “X,”, “(antidepressant). P-AMPK protein was monitored by western blot. […] (p<0.05a).” for “(antidepressant).”

[4] = Tail Suspension Test, separated BALB/c mice (model for depression); assay type: in vivo; details: compounds 1 mg/kg i.p., imipramine 10 mg/kg i.p.; day 7; in relation to vehicle
From the text: Tail suspension test (TST): Animals are suspended upside down by adhesive tape placed 1 cm from the tail tip. The elevation of the animal is 50 cm from the nearest surface. […] Statistical analysis compares the magnitude of immobility (in seconds) between different treatment groups. In this test, antidepressants characteristically cause an increase of the time fraction spent by the animal as active at the expense of the inactivity period.
50, 2 month old female BALB/c mice were separated (each mouse in a different cage) for 9 days period (a model for depression). On days 7, 8, 9, 34-40 mice were administered with either vehicle or compounds X, 12 and 15 (1 mg/kg i.p.) or imipramine 10 mg/kg (anti-depressant) i.p. and tested in the Tail suspension test on day 7 of the experiment (10 mice per group).

leptin = assay: Leptin levels in the hypothalamus; assay type: in vivo, BALB/c mice; details: FIG. 15
From the text: 50, 2 month old female BALB/c mice, 10 mice per group, on ad libitum diet were separated (each mouse in a different cage) for 9 days (Separation Stress, a model for depression).

## CCCCCCCC/C=C\CCCCCCCC(=O)N[C@H](CO)C(C)C [Compound 1, oleoyl-L-valinol amide]
[1]
  food consumption: significant decrease
  weight (weight loss): significant decrease
[1]; listed as OVA
  weight (weight loss): decreased body weight
[1]; listed as X
  weight (weight loss): significant weight loss
Serotonin (5HT) levels; Hippocampus
  5HT: 342.2 ± 33 ng/g
Serotonin (5HT) levels; Hypothalamus
  5HT: 854.4 ± 16.8 ng/g
Serotonin (5HT) levels
  5HT levels in the hippocampus vs. control: significantly enhanced
  5HT levels in the hypothalamus vs. control: significantly enhanced
Serotonin (5HT) levels; listed as X
  5HT levels in the hippocampus vs. control: increased significantly
  5HT levels in the hypothalamus vs. control: increased significantly
[2]
  motor activity in Open Field Test: improved motor activity like the impramine
NPY protein
  NPY protein expression in the hypothalamus: decrease significantly
[3]
  food consumption: did not change
  weight (weight loss): did not change
[3]; listed as OVA
  weight (weight loss): not body weight
[3]; listed as X
  weight (weight loss): do not produce weight loss
P-AMPK protein; hippocampus, FIG. 14A
  P-AMPK protein in the hippocampus: significant increase
P-AMPK protein; hypothalamus, FIG. 14B
  P-AMPK protein in the hypothalamus: significant increase
[4]
  activity in Tail Suspension Test: significantly enhanced activity
leptin
  leptin levels in the hypothalamus: tendency to increase
